“Also recorded” adds a separate entry of the source.
Test system: rat model of peripheral arterial disease (PAD rats, femoral artery occlusion)
Test: Exercise intolerance test (motorized treadmill) in PAD rat model after epidural delivery of RTX
Assay type: in vivo
Source text: Catheter-based femoral artery occlusion was created by placing a modified PE50 catheter (its cavity filled with solid agarose) between common iliac artery and left femoral artery to interrupt hindlimb blood supply. The whole procedure is similar to the telemetry implant surgery. Generally, rats were anesthetized using a 2%-3% isoflurane:oxygen mixture. A warm water blanket was used to provide intra-operative heat support to prevent hypothermia. Rats were placed in the prone position and the surgical site (i.e., the femoral area) was cleared of hair, prepared with iodine or chlorhexidine, and the femoral artery was exposed. After a small incision was made, a modified PE50 catheter was placed into the femoral artery and advanced about 3.5 cm to the iliac artery at the aortic bifurcation. The distal end of the femoral artery was ligated with 4-0 Dexon suture. The skin was closed with external interrupted 4-0 or 3-0 prolene suture, which were removed in 10-14 days after the surgery.
Exercise testing for determination of intolerance time was performed in a motorized treadmill equipped with an electrical grid at the end of the lane. The animals were initially acclimated to the treadmill environment at a low speed (13 m/min, 0% grade) for 6 minutes. Then, data was recorded of the exercise duration and distance at the speed of the treadmill of 13 m/minute (0% grade) and increased of 3 m/minute each 2 minutes until exhaustion. Exhaustion was defined operationally as the time at which the rat was unable, or refused, to maintain its running speed for more than 15 seconds despite encouragement by mild electrical stimulation. The maximal speed and running distance were recorded when exhaustion occurred. Two methods were used to measure the exercise intolerance time in sham, PAD and PAD+RTX rats. With the first method, individual rats were run with 90%, 75%, 50% and 25% of its own maximal speed. The exercise intolerance time corresponding to individual running intensity was recorded and compared among groups. With the second method, a fixed running speed (37 m/minute) was used to run all rats among groups to get their exercise intolerance time.
To deplete skeletal muscle afferent neuron soma (L4-L5 DRGs), rats were anesthetized using 2%-3% isoflurane:oxygen mixture. Rats were placed in the prone position and the surgical site was cleared of hair, prepared with iodine or chlorhexidine. A small midline incision was made in the region of the T13-L1 thoracic vertebrae. Following dissection of the superficial muscles, a small hole (approximately 3 mm*3 mm) was made in the left side of T13 vertebral (ipsilateral). A polyethylene catheter (PE-10) was inserted into the subarachnoid space via left hole and gently advanced about 4.0 cm to the left L5 level in which the first injection (6 μg/ml, 10 μl) was made at a very slow speed to minimize the diffusion of RTX. Then the catheter was pulled back to left L4 to perform another injection (10 μl/each). Then the catheter was held for 15 minutes and then withdrawn. After that, silicon gels were used to seal the hole in the T13 vertebral. The skin overlying the muscle was closured by 3-0 polypropylene suture. Simple interrupted sutures were used to close the skin. Skin suture were removed 10-14 days after surgery. Betadine was applied to the wound and the rats were allowed to recover from the anesthesia.
The therapeutic efficacy of resiniferatoxin was tested in a in a rat model of peripheral arterial disease. As explained above, resiniferatoxin was administered to PAD rats by lumbar epidural administration at the time of femoral arterial occlusion. The resiniferatoxin (6 μg/ml, 10 μl/per ganglia) was injected between the ipsilateral L4 and L5 vertebrae into the epidural space at a concentration of 10 μl per ganglion. Healthy rats with sham treatment were also used as a positive control.

C=C(C)[C@]12C[C@@H](C)[C@@]34O[C@@](Cc5ccccc5)(OC1C3C=C(COC(=O)Cc1ccc(O)c(OC)c1)C[C@]1(O)C(=O)C(C)=CC41)O2 (stereo partly drawn) [resiniferatoxin, [(1R,6R,13R,15R,17R)-13-benzyl-6-hydroxy-4,17-dimethyl-5-oxo-15-(prop-1-en-2-yl)-12,14,18-trioxapentacyclo[11.4.1.0^1,10.0^2,6.0^11,15]octadeca-3,8-dien-8-yl]methyl 2-(4-hydroxy-3-methoxyphenyl)acetate]
ability to run for longer distances at a higher rate (time running at percent maximum intensity) (RTX 6 μg/ml, 10 μl per ganglion, lumbar epidural L4/L5, at the time of femoral arterial occlusion, FIG. 1D): increased ability to run for longer distances at a higher rate
ability to run at 37 m/minute (time run at 37 m/min) (RTX 6 μg/ml, 10 μl per ganglion, lumbar epidural L4/L5, at the time of femoral arterial occlusion, fixed speed 37 m/minute, FIG. 1C): increased ability to run at 37 m/minute
running distance (RTX 6 μg/ml, 10 μl per ganglion, lumbar epidural L4/L5, at the time of femoral arterial occlusion, vs PAD+control, FIG. 1A): increased running distances
maximal running speed (RTX 6 μg/ml, 10 μl per ganglion, lumbar epidural L4/L5, at the time of femoral arterial occlusion, vs PAD+control, FIG. 1B): increased maximal running speed
exercise limitations associated with PAD (RTX administered 4 weeks after femoral arterial occlusion (after onset of PAD), before vs after treatment, FIG. 2): reduces exercise limitations; also recorded: reduced the exercise limitations
exercise limitations associated with PAD (RTX given at the time of femoral arterial occlusion, FIG. 1): reduces the exercise limitations
duration of the statistically significant improvements in exercise performance (RTX given at the time of femoral arterial occlusion, time after PAD surgery): lasted for months

From patent US20200129472A1, “COMPOSITIONS AND METHODS FOR THE TREATMENT OF PERIPHERAL ARTERY DISEASE” (BOARD OF REGENTS OF THE UNIVERSITY OF NEBRASKA, priority 2017, published 2020)
